pEC50: −log10 of the molar value.
What follows are compounds tested against His-tagged p53-Y220C DNA binding domain (Homo sapiens, UniProt P04637, Y220C) (assay: Biochemical p53-Y220C and DNA binding assay (HTRF)). Conditions: inflection point of 10 points dose titration, 4 parameter curve fit; p53-Y220C DBD 100 nM, biotinylated dsDNA 200 nM, 27 to 29° C.; read-out: HTRF IP.
Text: Biological Example 1. Biochemical p53-Y220C and DNA Binding Assay
The compounds of this invention can bind to p53-Y220C and increase the ability of the mutant p53 to bind to DNA at higher temperatures. His-tagged p53-Y220C DNA binding domain containing amino acid 94-312 is used to measure DNA binding activities in vitro with the sequence described below. (SEQ ID NO: 1: […]. Biotin labeled double strand DNA (dsDNA) containing consensus p53 binding sequence (SEQ ID NO: 2: Forward: 5′-(biotin)-[…]-3′; Reverse: 5′-(biotin)-[…]-3′) is used to measure protein-DNA binding activities. Compounds, His-tagged p53-Y220C DBD proteins (100 nM), and biotinylated dsDNA (200 nM) were mixed in ice-cold assay buffer containing DPBS, 20 mM NaCl, and 0.5% BAS, and incubated at 4° C. overnight in 384-well plate. Plates were transferred to incubator at 27 to 29° C. with constant shaking for 60 minutes. Equal volume of Homogeneous Time-Resolved Fluorescence (HTRF) dyes containing mAb anti-6HIS Tb cryptate gold and d2 labeled streptavidin in the assay buffer was added to each well and incubated at 27 to 29° C. with constant shaking for 60 minutes. The plate was read using Envision multimode plate reader. Reference compound 1 was used as high control and DMSO was used as low control. The percentage activation (A %) of protein-DNA binding by compounds was normalized by setting up high control (reference compound) as […] and low control (DMSO) as 0% (A %=(HTRF ratio of compound-HTRF ratio of low control)/(HTRF ratio of high control-HTRF ratio of low control)*500). 10 points dose titration curves for each compound were analyzed by 4 parameter curve fit and inflection point (IP) was reported. Reference compound 1 is shown below Table 1. Compounds of the invention are active in the HTRF assay. Data in Table 1 collected using Biological Example 1.
`CN1CC[C@@H](Nc2cccc3c2cc(/C=N/OCc2nc4ccccc4[nH]2)n3CC(F)(F)F)[C@@H](F)C1` [Example 2-9, (E)-4-(((3S,4R)-3-fluoro-1-methylpiperidin-4-yl)amino)-1-(2,2,2-trifluoroethyl)-1H-indole-2-carbaldehyde O-((1H-benzo[d]imidazol-2-yl)methyl)oxime] was tested, and the pEC50 was 6.00 to 7.00.
For `F[C@H]1CNCC[C@H]1Nc1cccc2c(CC(F)(F)F)c(/C=N/OCC3CC3)sc12` [Example 2-10, (E)-7-(((3S,4R)-3-fluoropiperidin-4-yl)amino)-3-(2,2,2-trifluoroethyl)benzo[b]thiophene-2-carbaldehyde O-cyclopropylmethyl oxime], the pEC50 was 6.00 to 7.00.
Work on `F[C@H]1CNCC[C@H]1Nc1cccc2c(CC(F)(F)F)c(/C=N\OCC3CC3)sc12` [Example 2-11, (Z)-7-(((3S,4R)-3-fluoropiperidin-4-yl)amino)-3-(2,2,2-trifluoroethyl)benzo[b]thiophene-2-carbaldehyde O-cyclopropylmethyl oxime] yielded a pEC50 of 6.00 to 7.00.
`OC(CO/N=C/c1sc2c(N[C@@H]3CCNC[C@@H]3F)cccc2c1CC(F)(F)F)c1ccccc1` (stereo partly drawn) [Example 2-12, (E)-7-(((3S,4R)-3-fluoropiperidin-4-yl)amino)-3-(2,2,2-trifluoroethyl)benzo[b]thiophene-2-carbaldehyde O-(2-hydroxy-2-phenylethyl) oxime] showed a pEC50 of 6.00 to 7.00.
`CC(O)CO/N=C/c1sc2c(N[C@@H]3CCNC[C@@H]3F)cccc2c1CC(F)(F)F` (stereo partly drawn) [Example 2-13, (E)-7-(((3S,4R)-3-fluoropiperidin-4-yl)amino)-3-(2,2,2-trifluoroethyl)benzo[b]thiophene-2-carbaldehyde O-(2-hydroxypropyl) oxime] showed a pEC50 of 6.00 to 7.00.
In the case of `CO/N=C/c1sc2c(N[C@@H]3CCN(C)C[C@@H]3F)cccc2c1CC(F)(F)F` [Example 2-14, (E)-7-(((3S,4R)-3-fluoro-1-methylpiperidin-4-yl)amino)-3-(2,2,2-trifluoroethyl)benzo[b]thiophene-2-carbaldehyde O-methyl oxime], the pEC50 was < 6.00.
Compound `CN1CC[C@@H](Nc2cccc3c(CC(F)(F)F)c(/C=N/OCc4nc5ccccc5[nH]4)sc23)[C@@H](F)C1` [Example 2-15, (E)-7-(((3S,4R)-3-fluoro-1-methylpiperidin-4-yl)amino)-3-(2,2,2-trifluoroethyl)benzo[b]thiophene-2-carbaldehyde O-((1H-benzo[d]imidazol-2-yl)methyl) oxime] has a pEC50 of 6.00 to 7.00.
For `CC(C)(C)O/N=C/c1sc2c(N[C@@H]3CNC[C@@H]3F)cccc2c1CC(F)(F)F` [Example 2-16, (E)-7-(((3R,4S)-4-fluoropyrrolidin-3-yl)amino)-3-(2,2,2-trifluoroethyl)benzo[b]thiophene-2-carbaldehyde O-(tert-butyl) oxime], the pEC50 was < 6.00.
Compound `F[C@H]1CNC[C@H]1Nc1cccc2c(CC(F)(F)F)c(/C=N/OC3CCCC3)sc12` [Example 2-17, (E)-7-(((3R,4S)-4-fluoropyrrolidin-3-yl)amino)-3-(2,2,2-trifluoroethyl)benzo[b]thiophene-2-carbaldehyde O-cyclopentyl oxime] has a pEC50 of 6.00 to 7.00.
With `O=C1CCC(CO/N=C/c2sc3c(N[C@@H]4CNC[C@@H]4F)cccc3c2CC(F)(F)F)N1` (stereo partly drawn) [Example 2-18, (E)-7-(((3R,4S)-4-fluoropyrrolidin-3-yl)amino)-3-(2,2,2-trifluoroethyl)benzo[b]thiophene-2-carbaldehyde O-((5-oxopyrrolidin-2-yl)methyl) oxime] the pEC50 was 6.00 to 7.00.
`O=C1NC(CO/N=C/c2sc3c(N[C@@H]4CNC[C@@H]4F)cccc3c2CC(F)(F)F)CO1` (stereo partly drawn) [Example 2-19, (E)-7-(((3R,4S)-4-fluoropyrrolidin-3-yl)amino)-3-(2,2,2-trifluoroethyl)benzo[b]thiophene-2-carbaldehyde O-((2-oxooxazolidin-4-yl)methyl) oxime] gave a pEC50 of 6.00 to 7.00.

From US20250120961A1, “P53 MODULATORS” (Nested Therapeutics, Inc., priority 2023, published 2025)
